{
  "source": "patent US12616672B2",
  "about": "“Methods for assessing risk of cardiovascular disease and methods and compounds for use in treating or preventing cardiovascular disease” (Queen Mary University of London, priority 2017, dated 2026)",
  "key": {"platelet rich plasma": {"test_system": "platelet rich plasma", "test": "PRP incubations with RvD5n-3 DPA then PAF, platelet adhesion molecule expression by flow cytometry", "format": "cell-based, human", "conditions": "0.1-10 nM, 15 min, then PAF 100 nM 30 min", "protocol": "FIG. 21: RvD2n-3 DPA and RvD5n-3 DPA reduce monocyte, neutrophil and platelet activation in healthy volunteer peripheral blood. […] Cell activation and leukocyte-platelet aggregates were assessed using flow cytometry. (A,B) Images depicting platelet monocyte (A) and (B) platelet-neutrophil aggregates. Results are representative of n=3 distinct experiments. (C,D) Cumulative neutrophil (C) CD11b and (D) CD62P expression. (E,F) Monocyte (E) CD11b and (F) CD62P expression. Results are mean of n=5 per condition and expressed as percentage change from PAF incubated cells. *p<0.05 compared to PAF using Wilcoxon Signed Rank Test. (G) Platelet rich plasma was incubated with vehicle (PBS) or RvD5n-3 DPA 0.1-10 nM (15 min; 37° C.) and PAF (100 nM; 30 min; 37° C.). Adhesion molecule expression evaluated using flow cytometry. Results are mean±s.e.m. n=5 healthy volunteers. * p, 0.05 compared to Vehicle group using Friedman's test followed by Dunn's multiple comparisons test.\nPeripheral blood from healthy volunteers was collected in acidified-citrate-dextrose. Blood was centrifuged at 500×g for 20 min. PRP was collected and cells incubated with RvD5n-3 DPA or vehicle (0.01% EtOH+PBS) for 15 min at 37° C. Cells were then incubated with PAF (100 nM) or Vehicle (0.01% EtOH) for 30 min at 37° C. Cells were then washed with PBS and cellular activation was assessed using flow cytometry as detailed below.\nIn select experiments platelet adhesion molecule expression was assessed. Here platelets were incubated with fluorescently labelled mouse anti-human VioBlue-anti-CD41, PE-Cy5-anti-CD62P, PerCP/Cy5.5-anti-CD63 and FITC-ant-CD42b for 30 min at 4° C. Cells were then washed and fluorescence, staining evaluated using LSRFortessa cell analyser (BD Biosciences) and analysed using FlowJo software (Tree Star Inc., V10)."}, "Apo E^−/− mice [1]": {"test_system": "Apo E^−/− mice", "test": "Apo E−/− mice on western diet given RvD5n-3 DPA: blood leukocyte and platelet activation by flow cytometry", "format": "in vivo", "conditions": "100 ng/mouse i.v., alternate days, 2 weeks; vs vehicle", "protocol": "(§1) Mice (male and female) were fed a western diet for 6 weeks from 4 weeks of age and kept of a 12 h light dark cycle. At 8 weeks of age, mice were given RvD5n-3 DPA (100 ng/mouse; i.v.) or vehicle on alternate days for a 2-week period. Mice were culled, aortic arches were collected and stained using oil-red O as in Khambata R S et al. Anti-inflammatory actions of inorganic nitrate stabilize the atherosclerotic plaque. Proc Natt Acad Sci USA. 2017; 114(4):E550-E559, the contents of which are incorporated herein by reference. Staining intensity was determined using image processing software and expressed as relative units per mm^2. The descending aorta was collected, placed in ice-cold methanol and lipid mediators identified and quantified as described above.\nIn separate experiments blood was collected from Apo E^−/− mice using heparin-lined syringes via cardiac puncture. Cells were incubated with Fc-blocking IgG and anti-mouse CD11b-PE-Texas Red, CD62P-Brilliant Violet650™, CD115-Brilliant Violet 711™, and CD41-Brilliant Violet 510™ (Biolegend). for 45 minutes on ice. Red blood cells were lysed and fixed using Whole Blood Lysing Reagent Kit. Staining was then evaluated using a flow cytometer and analysis was conducted using appropriate software."}, "[2]": {"test_system": "peripheral blood leukocytes and platelets from CVD patients", "test": "CVD patient whole blood incubated with RvD2n-3 DPA or RvD5n-3 DPA then PAF, flow cytometry", "format": "cell-based, human", "conditions": "15 min then PAF 30 min", "protocol": "Whole blood was incubated with RvD2n-3 DPA or RvD5n-3 DPA (0.1 nM, 1 nM or 10 nM) or vehicle (PBS containing 0.01% EtOH) for 15 min then with PAF (100 ng/ml) for 30 min (37° C.). Expression of CD62P on (A) neutrophils (B) monocytes and CD11b on (C) neutrophils and (D) monocytes was investigated using flow cytometry and fluorescently labelled antibodies. Results are mean±s.em. and expressed as percentage of PAF incubated cells. n=9 patients per interval. * p<0.05 vs Veh group using one-sample t test, followed by Sidak correction of p values.\nWhole blood was incubated with RvD2n-3 DPA or RvD5n-3 DPA (0.1 nM, 1 nM or 10 nM) or vehicle (PBS containing 0.01% EtOH) for 15 min then with PAF (100 ng/ml) for 30 min (37° C.). Expression of CD62P on (A) neutrophils (B) monocytes and CD11b on (C) neutrophils and (D) monocytes was investigated using flow cytometry and fluorescently labeled antibodies. Results are mean±s.em. and expressed as percentage of PAF incubated cells. n=9 patients per group. * p<0.05 vs PAF group using Wilcoxon Signed Rank Test.\nAfter stimulation, samples were washed twice with PBS for 12 min at 800×g. Samples were stained for flow cytometry as described below.\nWhole blood was incubated with lineage-specific markers for 45 min (4° C., in DPBS containing 0.02% BSA). The following anti-human antibodies were used: VioBlue-anti-CD41, PE-Cy5-anti-CD62P, Brilliant Violet 711-anti-CD11b, APC-Cy7-anti-CD16, Alexa Fluor 647-anti-CD14. After staining, red blood cells were lysed using Whole Blood Lysing Reagent Kit, according to the manufacturer's instructions. Data was collected using a flow cytometer and analysis was conducted using appropriate software."}, "[3]": {"test_system": "peripheral blood leukocytes and platelets from CVD patients", "test": "CVD patient whole blood incubated with RvD2n-3 DPA or RvD5n-3 DPA then PAF, flow cytometry", "format": "cell-based, human"}, "Apo E^−/− mice [4]": {"test_system": "Apo E^−/− mice", "test": "Apo E−/− mice given RvD5n-3 DPA: aortic arch Oil red-O staining", "format": "in vivo", "conditions": "100 ng/mouse i.v., alternate days, 2 weeks; vs vehicle", "protocol": "as §1"}},
  "data": [
    {"smiles": "CC/C=C\\C[C@H](O)/C=C/C=C\\C/C=C\\C=C\\[C@@H](O)CCCCCC(=O)O", "note": "[RvD5n-3 DPA, 7,17-trihydroxy-8E,10,13,15E,19Z-docosapentaenoic acid]", "values": [
      {"measurement": "PAF mediated upregulation of CD41 expression on platelets", "setting": "platelet rich plasma", "value": "dose dependent reduction"},
      {"measurement": "PAF mediated upregulation of CD62P expression on platelets", "setting": "platelet rich plasma", "value": "dose dependent reduction"},
      {"measurement": "PAF mediated upregulation of CD63 expression on platelets", "setting": "platelet rich plasma", "value": "dose dependent reduction"},
      {"measurement": "circulating platelet-monocyte aggregates (CD41 and CD62P expression on CD115 positive cells)", "setting": "Apo E^−/− mice [1]", "value": "reduced"},
      {"measurement": "monocyte activation, CD11b expression", "setting": "Apo E^−/− mice [1]", "value": "decrease"},
      {"measurement": "platelet-neutrophil aggregates and neutrophil activation", "setting": "Apo E^−/− mice [1]", "value": "significant reduction"},
      {"measurement": "reduction in neutrophil CD11b expression", "setting": "Apo E^−/− mice [1]", "value": "> 60", "unit": "%"},
      {"measurement": "expression of CD11b on monocytes", "setting": "[2]", "value": "decreased"},
      {"measurement": "expression of CD11b on neutrophils", "setting": "[2]", "value": "decreased"},
      {"measurement": "platelet-monocyte aggregates measured as CD62P and CD41 expression", "setting": "[2]", "value": "decreases"},
      {"measurement": "platelet-neutrophil aggregates measured as CD62P and CD41 expression", "setting": "[2]", "value": "decreases"},
      {"measurement": "expression of CD62P on peripheral blood platelets", "setting": "[3]", "value": "dose-dependently regulated"},
      {"measurement": "expression of CD63 on peripheral blood platelets", "setting": "[3]", "value": "dose-dependently regulated"},
      {"measurement": "aortic lesions (Oil red-O staining)", "setting": "Apo E^−/− mice [4]", "value": "significant reduction"}
    ]}
  ]
}
